From PubChem BioAssay AID2305 (GlaxoSmithKline (GSK), 2010) come the findings set out here.

For the assay, the system named is P. falciparum 3D7 growth, pLDH absorbance. In words: blood-stage malaria parasite growth potency – strain 3D7, dose response (AID 2305).
On to `O=c1cc(NCCCNCc2cc3c(Cl)cc(Cl)cc3[nH]2)[nH]c2ccccc12`, for which the IC50 (as a rule, the concentration at which inhibition is half-maximal) was 860 nM. This lies in the sub-micromolar range.
Compound `Cc1nc2ccc(NC(=O)c3cc(S(=O)(=O)N(C)C)ccc3Cl)cc2s1` registered a concentration for half-maximal inhibition (IC50) of 820 nM.
Under `COc1cc(NC(=O)N2CCOC(CCN3CCC(c4ccccc4)CC3)(c3ccc(Cl)c(Cl)c3)C2)cc(OC)c1` (stereo not drawn) stands 290 nM; under `O=C(NC1CCC1)C1CCN(C(c2ccc(Cl)cc2)c2ccc(Cl)cc2)CC1`, 560 nM.
Under `CC(=O)c1c(CC(=O)O)c2ccccc2n1O` stands 740 nM; under `O=C(NC1CCC(CCN2CCc3ccc(-c4cnccn4)cc3CC2)CC1)c1cccc(-n2cccn2)c1` (stereo not drawn), 900 nM.
On to `O=S(=O)(c1ccc2cc[nH]c2c1)N1CCC[C@@H]1CCN1CCC(c2c[nH]c3cnccc23)CC1`, for which the half-inhibitory concentration (IC50) was 1020 nM.
The value for `O=C(NCCCCCN1CCC(c2c[nH]c3ccccc23)CC1)Nc1cccc(Br)c1` was 1110 nM; that for `COc1cccc(NC(=O)Nc2c(-c3cccc(C(F)(F)F)c3)c(C(F)(F)F)nn2C)c1` was 910 nM.
`COc1ccc2c(OC)ccc(CNCCCCCCNCc3ccc(OC)c4ccc(OC)cc34)c2c1` gave a half-inhibitory concentration (IC50) of 400 nM. This IC50 lies about 2.3-fold lower than the previous one.
The value for `COc1cc(C2CCN(CCCCNC(=O)c3ccc(NC(=O)c4ccc(Cl)c(Cl)c4)cc3)CC2)ccc1OC(C)C` was 320 nM.
Under `COc1ccc2nccc(NC(=O)N3CCC(NCc4cc5c(F)ccc(F)c5[nH]4)CC3)c2n1` stands 220 nM; under `Cc1cnc2cc3c(cc2c1N1CCN(C)CC1)NCC3`, 780 nM; under `Cc1cccc(C=NNc2cc(C)nc3ccc(F)cc23)n1`, 1000 nM.
Under `CCCCC(NCC)c1ccc(OCCOc2ccc(C(CCCC)NCC)cc2)cc1` (stereo not drawn) stands 930 nM; under `CCCC(C)NC(=O)c1cnn(-c2ccc(C(C)(C)C)cc2)c1OCc1ccc(Br)cc1` (stereo not drawn), 1060 nM.
Compound `CCN(CC)CCCN(C(=O)Nc1ccc(C#N)cc1)c1nc(-c2ccc(F)cc2)cs1` had a half-inhibitory concentration (IC50) of 650 nM.
Under `COc1ccc2nccc(NCC3(O)CCN(CCc4ccc5c(c4)OCCO5)CC3)c2n1` stands 600 nM; under `O=C(NCCCCCN1CCC(c2c[nH]c3ccccc23)CC1)Nc1ccc(I)cc1`, 990 nM.
Under `Nc1[nH]c2ccccc2c(=O)c1-c1nc2ccccc2s1` stands 300 nM; under `O=S(=O)(NCCN1CCCC1)c1ccc(-c2cccc(CNCc3ccc(F)cc3)c2)cc1F`, 790 nM; under `CN1CCN(CCCCNc2c3ccccc3nc3ccccc23)CC1`, 700 nM.
Under `CCCCCCCCCCNCC(O)c1ccc(O)c(C(=O)OC)c1` (stereo not drawn) stands 720 nM.
Consider `CN(C)c1cccc2c1nc(-c1ccc3c(c1)CCO3)n2CCNCc1ccccc1`, for which the IC50 was found to be 730 nM. This IC50 and that of the compound before are within 1.5-fold of each other.
Under `CO/N=C(\C)c1ccc2c(c1)CCN(CCC1CCC(NC(=O)c3cccc(-c4noc(C)n4)c3)CC1)CC2` (stereo not drawn) stands 240 nM; under `OC(CNCc1ccco1)Cn1c2ccc(Br)cc2c2cc(Br)ccc21` (stereo not drawn), 1070 nM; under `O=C(Nc1ccc(C(=O)Nc2cccc(C3=NCCN3)c2)cc1)Nc1ccc(C2=NCCN2)cc1`, 100 nM.
For the compound `CCOc1ccc2ccccc2c1C(=O)Nc1cc(C)nn1-c1nc(C)cc(=O)[nH]1`, the 50% inhibitory concentration (IC50) amounted to 1010 nM.
Under `N#Cc1ccc2c(c1)CCN(CCC1CCC(NC(=O)/C=C/c3cnc4ccccc4c3)CC1)CC2` (stereo not drawn) stands 1210 nM; under `O=C(/C=C/c1ccc(Cl)c(Cl)c1)NC1CCC(CN2CCC(Cc3c[nH]c4ccccc34)CC2)CC1` (stereo not drawn), 890 nM; under `Oc1ccc(-c2ccccc2)cc1CN1CCCCCC1`, 1170 nM.
Under `OC1CCCN(Cc2ccc(-c3cccc(-c4nc5ccccc5[nH]4)c3)cc2)C1` (stereo not drawn) stands 1340 nM; under `Oc1ccccc1CNCC(O)c1cccc(C(F)(F)F)c1` (stereo not drawn), 530 nM.
The value for `COc1ccccc1N1CCN(C(C(=O)NCc2ccc(C)cc2)c2ccc(C)cc2)CC1` (stereo not drawn) was 930 nM; that for `COc1ccc(CNCc2cccc(-c3csc(-c4nc5ccccc5[nH]4)c3)c2)cc1` was 650 nM.
The compound `O=C(NCc1cccc(F)c1)Nc1cccc(-c2ccc(-c3nc4ccc(C(F)(F)F)cc4[nH]3)cc2)c1` returned a 50% inhibitory concentration (IC50) of 770 nM. The IC50 values of the last two compounds are within 1.5-fold of each other.
The value for `N#Cc1ccc(NC(=NC2CCN(Cc3ccccc3)CC2)Nc2ccccc2Cl)c(O)c1` was 300 nM; that for `CCNc1cc(C(=O)N[C@@H](Cc2ccccc2)[C@H](O)CN[C@@H]2CCc3ccccc32)cc(N2CCCC2=O)c1` was 1020 nM.
`COC(=O)c1ccc(OCC(C)NCC(O)c2cccc(C(F)(F)F)c2)cc1` (stereo not drawn) displayed a concentration for half-maximal inhibition (IC50) of 840 nM.
Under `CC(=O)c1cc(N2CCOCC2)ccc1N` stands 910 nM; under `COc1c(F)ccc2ncc(Cl)c(CCN3CCC(NCc4ccc5c(n4)NC(=O)CS5)CC3)c12`, 540 nM; under `COC(=O)c1sc(-c2ccc(Cl)cc2)cc1N(CCCN1CCC(N2CCCCC2)CC1)S(=O)(=O)c1ccc(C)cc1`, 740 nM.
The compound `CCN(CC)CCN(Cc1ccc(-c2ccc(C(F)(F)F)cc2)cc1)C(=O)Cn1c(SCc2ccc(F)cc2)nc(=O)c2ccccc21` displayed an IC50 of 770 nM.
Under `O=c1[nH]nc(-c2ccc(N3CCCC3)c([N+](=O)[O-])c2)c2ccccc12` stands 630 nM.
Under `Cc1cccc2sc(N(CCCn3ccnc3)C(=O)C=Cc3cccs3)nc12` stands 1280 nM.
Under `CCn1cc(C=C2Oc3c(ccc(O)c3CN3CCCCC3C)C2=O)c2ccccc21` (stereo not drawn) stands 1020 nM; under `CC(CN1CCN(C)CC1)C(=O)Nc1cccc(-c2ccc(-c3nc4ccccc4[nH]3)cc2)c1` (stereo not drawn), 940 nM; under `COc1ccc(NC(=O)CCNc2cc(C)nc(NCCc3ccccc3)n2)cc1`, 1160 nM.
As for `Cc1cc(Nc2cccc(C(F)(F)F)c2)nc2ccc(NC(=O)c3ccc(=O)[nH]c3)cc12`, the IC50 came to 490 nM.
The value for `CC(=O)N1CCN(c2ccc(NC(=O)c3oc(-c4ccccc4)nc3C(F)(F)F)cn2)CC1` was 840 nM; that for `Cc1cc(NC(=O)Nc2cccc(N(C)C)c2)c2ccccc2n1` was 200 nM; that for `CCOC(=O)c1c(C)n(-c2ccccc2)c2ccc(OC(=O)COc3ccc(Cl)cc3Cl)cc12` was 430 nM.
Under `CCNc1cc(C(=O)N[C@@H](Cc2ccccc2)[C@H](O)CNC(C)Cc2cccc(Cl)c2)cc(N2CCCCS2(=O)=O)c1` (stereo partly drawn) stands 500 nM; under `COc1ccc2nccc([C@@H](O)CN3CCC(NCc4cc5c(cc4F)SCC(=O)N5)CC3)c2n1`, 1000 nM.
`Cc1cc(N2CCCC2)nc(Nc2ccc(NC(=O)COc3ccccc3)cc2)n1` registered an IC50 of 650 nM.
Under `Oc1cccc(Nc2nc(NCc3ccco3)c3ccccc3n2)c1` stands 410 nM; under `O=C(/C=C/c1ccc(Cl)c(Cl)c1)NCCCCCN1CCC(C(=O)Nc2cccc(Cl)c2)CC1`, 680 nM; under `COc1cc(NC(=O)NC(CCN2CCC3(CCc4ccccc43)CC2)c2ccc(Cl)c(Cl)c2)cc(OC)c1OC` (stereo not drawn), 680 nM.
As to `O=C(NCCCCCN1CCC(c2c[nH]c3ccccc23)CC1)Nc1ccc(Cl)c(Cl)c1`, the IC50 turned out to be 920 nM.
Under `O=C(Nc1ccsc1)Nc1cccc(-c2cccc(-c3nc4ccc(C(F)(F)F)cc4[nH]3)c2)c1` stands 150 nM; under `O=C(CCNc1ccnc(NCCc2ccc(F)cc2)n1)Nc1ccccc1`, 830 nM; under `CCN(CC)C(=O)c1cccc(/C=C/c2ccc(-c3c(C)[nH]c(C)c(Cl)c3=O)cc2)c1`, 260 nM.
As for `Oc1ccc2ccccc2c1C=NNc1nc(Nc2ccccc2)nc(N2CCOCC2)n1`, the half-maximal inhibitory concentration (IC50) stood at 890 nM.
Under `COc1cc2c(c(Cl)c1OC)CCN(Cc1ccccc1)CC2c1ccc(C(N)=O)cc1` (stereo not drawn) stands 850 nM.
On to `COCCn1c(Sc2ncnc3sccc23)nc2ccccc21`, for which the IC50 was found to be 880 nM.
Under `O=C(Nc1ccccc1)Nc1cccc(-c2nn3c(OCCN4CCCC4)cccc3c2-c2ccncc2)c1` stands 400 nM; under `CN1CCN(c2ccnc3ccc(NC(=O)Nc4ccc5c(c4)CCCC5=O)cc23)CC1`, 130 nM.
The value for `CCN(CCN(C)C)Cc1ccc(-c2ccc(NS(=O)(=O)c3cccc4cccnc34)cc2)cc1` was 930 nM; that for `COc1ccc(Nc2ncc(Cl)c(Nc3cccnc3C(N)=O)n2)cc1N1CCN(C)CC1` was 230 nM.
Under `Oc1ccc(Cl)cc1-c1cc(C(F)(F)F)nc(-c2ccccc2)n1` stands 750 nM; under `COc1ccc(NC(C)C(=O)Nc2ccc(Br)cc2)cc1S(=O)(=O)N1CCCCC1` (stereo not drawn), 220 nM; under `CCCCCN=C(N)c1ccc(OCCCCCOc2ccc(C(N)=NCCCCC)cc2)cc1`, 250 nM.
As to `COc1ccc(Nc2ncc3c(-c4cccc(NC(=O)Cc5cccc(O)c5)c4)c[nH]c3n2)cc1OC`, the IC50 was 700 nM. Compared with the last compound, the IC50 is about 2.8-fold higher.
`Oc1cc(-c2nc(C3(CNCc4ccc(Cl)cc4)CCCCC3)[nH]c2-c2ccncc2)ccc1Cl`: the 50% inhibitory concentration (IC50) is 130 nM.
Under `Cc1ccc(C2CCN(CCCCNC(=O)c3ccc(NC(=O)c4ccc(Cl)cc4)cc3)CC2)c(OCC2CC2)c1` stands 890 nM; under `Cc1ccc2nc(-c3ccccc3Nc3ccnc4cc(-c5nccs5)ccc34)[nH]c2c1`, 190 nM; under `Cc1cc2c(cc1C(F)(F)F)N(C(=O)Nc1cc(C(=O)NCCN(C)C)cc(C(F)(F)F)c1)CC2`, 730 nM.
Under `FC(F)(F)c1ccc2nccc(NN=Cc3ccccc3)c2c1` stands 1170 nM; under `Nc1ncc(-c2ccccc2)cc1-c1nc2cc(Cl)c(F)cc2[nH]1`, 260 nM.
The value for `NOCCCCOc1cc(Cl)c(Cl)cc1Cl` was 170 nM.
`O=C(Nc1ccc(Cl)cc1)c1ccc(S(=O)(=O)NCC2CCN(CC3CCCCC3)CC2)cc1` registered a half-maximal inhibitory concentration (IC50) of 860 nM.
The compound `COc1ccc(Nc2nccc(-c3ccc4c(-c5ccsc5)cnc(N)c4c3)n2)cc1` yielded a half-maximal inhibitory concentration (IC50) of 240 nM.
Under `Cc1[nH]c(C)c(-c2ccc(-c3ccc(C#N)cc3)nc2)c(=O)c1Br` stands 980 nM; under `Cc1cc(C2CCN(CCCCNC(=O)c3ccc(NC(=O)c4ccc(Cl)cc4)cc3)CC2)c(C)cc1OCc1ccccn1`, 800 nM.
Under `CCN(CC)CCNC(=O)/C(=C/C=C/c1cc2cc(Cl)c(Cl)cc2[nH]1)OC` stands 930 nM; under `Cc1ccc(CCC(C)NCC(O)c2cccc(C(F)(F)F)c2)cc1` (stereo not drawn), 560 nM; under `CC(C)c1ccc(NC(=O)c2ccc(C(=O)NC3CCN(CC4CCCCC4)C3)cc2)cc1` (stereo not drawn), 790 nM.
Under `CCOC(=O)c1ccc(OCCCCCCOc2ccc(Br)cc2)cc1` stands 780 nM.
